Key:
Gelatinase = experiment: in vitro particle concentration fluorescence assay, inhibition of gelatinase; assay type: biochemical; conditions: pH 7.5, room temperature, read-out: Gelatinase Ki (MMP Inhibition Constants)
Procedure: (§1) Inhibitory activity is evaluated in one or more of the MMP enzymes (stromelysin, gelatinase, and collagenase) in vitro using particle concentration fluorescence assay. An inhibitor binds to MMP enzymes which prevents the degradation of a substrate by stromelysin, gelatinase, or collagenase. The substrate has attached to it a fluorescein and a biotin moiety. The intact substrate then binds to an avidin-coated particle via the biotin moiety. Once the particle is washed and dried, a fluorescent signal is generated since the fluorescent group is attached to the particle. Without an inhibitor present, the substrate is degraded by MMP enzymes and the fluorescein group is removed, therefore, no fluorescent signal can be detected. Testing compounds are dissolved in DMSO to the desired concentration, then the solutions are diluted to 1:5 with MMP buffer (50 mM Tris-HCl, pH 7.5; 150 mM NaCl; 0.02% NaN3). Serial two-fold dilutions of each compound are prepared. A concentrated, activated enzyme solution is transferred into each plate of the testing compounds, and the mixture is incubated at room temperature for 15 minutes. Thawed MMP substrate is then added into all plates, and the plates are incubated in the dark for 1-3 hours at room temperature. At this point, the substrate mixture is mixed with 0.1% avidin-coated polystyrene particles. After 15 minutes, the fluorescence values are measured following filtration and washing of the beads. Ki values are then calculated.

Stromelysin = Stromelysin (Homo sapiens, UniProt P08254); experiment: in vitro particle concentration fluorescence assay, inhibition of stromelysin; assay type: biochemical; conditions: pH 7.5, room temperature, read-out: Stromelysin Ki (MMP Inhibition Constants)
Stromelysin, sequence (P08254 100-477): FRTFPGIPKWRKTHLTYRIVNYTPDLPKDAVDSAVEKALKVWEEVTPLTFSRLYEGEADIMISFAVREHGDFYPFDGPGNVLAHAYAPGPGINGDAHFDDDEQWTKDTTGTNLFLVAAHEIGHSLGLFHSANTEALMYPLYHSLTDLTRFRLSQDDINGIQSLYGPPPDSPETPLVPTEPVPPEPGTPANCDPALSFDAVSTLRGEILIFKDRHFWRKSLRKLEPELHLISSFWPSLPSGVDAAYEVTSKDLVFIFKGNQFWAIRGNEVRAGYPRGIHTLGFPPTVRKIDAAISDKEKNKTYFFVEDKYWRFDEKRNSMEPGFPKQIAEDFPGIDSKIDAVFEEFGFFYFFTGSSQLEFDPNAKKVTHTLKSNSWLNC
Procedure: as §1

SMILES	Ki (Gelatinase)	Ki (Stromelysin)
CC(CS(=O)(=O)c1ccccc1)C(=O)NO (stereo not drawn) [Example 3, N-hydroxy 2-[(benzenesulfonyl)methyl]-propionamide]	81 nM	3600 nM
CCCCS(=O)(=O)CC(CS(=O)(=O)CCCC)C(=O)NO [Example 7, N-hydroxy-2-[(n-butylsulfonyl)methyl]-3-(n-butylsulfonyl)-propionamide]	350 nM	1000 nM
O=C(NO)C(CS(=O)(=O)c1ccc(Br)cc1)CS(=O)(=O)c1ccc(Br)cc1 [Example 6, N-hydroxy-2-[(4-bromobenzenesulfonyl)methyl]-3-(4-bromobenzenesulfonyl)-propionamide]	2.5 nM	92 nM
O=C(NO)C(Cc1ccccc1)CS(=O)(=O)c1ccccc1 (stereo not drawn) [Example 2, N-hydroxy 2-[(benzenesulfonyl)methyl]-3-phenyl-propionamide]	87 nM	1100 nM
CCCCOc1ccc(S(=O)(=O)CC(CN2C(=O)CN(CCCC)C2=O)C(=O)NO)cc1 (stereo not drawn) [Example 14, N-hydroxy-2-[methyl-3-(1-butylhydantoin)]-3-(4-butoxybenzenesulfonyl)-propionamide]	0.092 nM	1.8 nM
O=C(NO)C(CS(=O)(=O)c1ccccc1)CS(=O)(=O)c1ccccc1 [Example 10, N-hydroxy-2-[(benzenesulfonyl)methyl]-3-(benzenesulfonyl)-propionamide]	8 nM	160 nM
CCCCCCCCS(=O)(=O)CC(CS(=O)(=O)CCCCCCCC)C(=O)NO [Example 8, N-hydroxy-2-[(n-octylsulfonyl)methyl]-3-(n-octylsulfonyl)-propionamide]	190 nM	440 nM

Continued, values first:

Ki (Gelatinase)	Ki (Stromelysin)	SMILES
1 nM	1 nM	COc1ccc(S(=O)(=O)CCCC(CS(=O)(=O)c2ccc(OC)cc2)C(=O)NO)cc1 (stereo not drawn) [Example 11, N-hydroxy-2-[(4-methoxybenzenesulfonyl)-methyl]-5-(4-methoxybenzenesulfonyl)-pentanamide]
3.8 nM	130 nM	Cc1ccc(S(=O)(=O)CC(CS(=O)(=O)c2ccc(C)cc2)C(=O)NO)cc1 [Example 9, N-hydroxy-2-[(4-methylbenzenesulfonyl)methyl]-3-(4-methylbenzenesulfonyl)-propionamide]
9.2 nM	49 nM	COc1ccc(S(=O)(=O)CC(Cc2ccccc2)C(=O)NO)cc1 (stereo not drawn) [Example 1, N-hydroxy 2-[(4-methoxybenzenesulfonyl)methyl]-3-phenyl-propionamide]
0.82 nM	5.4 nM	CCCCCCCCS(=O)(=O)CC(CS(=O)(=O)c1ccc(OC)cc1)C(=O)NO (racemic) [Example 12, N-hydroxy-2-(n-octylsulfonylmethyl)-3-(4-methoxybenzenesulfonyl)-propionamide]
1.3 nM	17 nM	COc1ccc(S(=O)(=O)CC(CN2C(=O)CN(C)C2=O)C(=O)NO)cc1 (stereo not drawn) [Example 13, N-hydroxy-2-[methyl-3-(1-methylhydantoin)]-3-(4-methoxybenzenesulfonyl)-propionamide]
0.19 nM	3.9 nM	COc1ccc(S(=O)(=O)CC(CS(=O)(=O)c2ccc(OC)cc2)C(=O)NO)cc1 [Example 4, N-hydroxy-2-[(4-methoxybenzene-sulfonyl)methyl]-3-(4-methoxybenzenesulfonyl)-propionamide]
0.34 nM	9 nM	CCCCN1CC(=O)N(CC(CS(=O)(=O)c2ccc(OC)cc2)C(=O)NO)C1=O (stereo not drawn) [Example 15, N-hydroxy-2-[methyl-3-(1-butylhydantoin)]-3-(4-methoxybenzenesulfonyl)-propionamide]
1.9 nM	72 nM	O=C(NO)C(CS(=O)(=O)c1ccc(Cl)cc1)CS(=O)(=O)c1ccc(Cl)cc1 [Example 5, N-hydroxy-2-[(4-chlorobenzenesulfonyl)methyl]-3-(4-chlorobenzenesulfonyl)-propionamide]

— patent publication US5847153A, “β-sulfonyl hydroxamic acids” (Pharmacia & Upjohn Company, priority 1997, dated 1998)
